Literature values in patent EP3290033A2, “PHARMACEUTICAL PACKAGE” (Samyang Biopharmaceuticals Corporation, priority 2015, dated 2016).

Assays:
[1] = higher than that of other first-generation 5-HT3 receptor antagonists
[2] = in vivo

half-life [2]: ≥ 40 h
SMILES: O=C1c2cccc3c2[C@H](CCC3)CN1[C@@H]1CN2CCC1CC2 [palonosetron, (3aS)-2-[(3S)-1-azabicyclo[2.2.2]oct-3-yl]-2,3,3a,4,5,6-hexahydro-1H-benz[de]isoquinolin-1-one]
inhibitory effect on delayed vomiting [1]: 10 times
